Test results taken from patent publication US10028960B2, “Pyrimidine compounds as JAK kinase inhibitors” (THERAVANCE BIOPHARMA R&D IP, LLC, priority 2016, dated 2018).

How the values were obtained:
JAK1 = JAK1 (Homo sapiens (Human), UniProt P23458); assay: LanthaScreen JAK biochemical assay, JAK1; details: for Ki: read-out: JAK 1 (pKi) (converted)
Protocol: A panel of four LanthaScreen JAK biochemical assays (JAK1, 2, 3 and Tyk2) were carried in a common kinase reaction buffer (50 mM HEPES, pH 7.5, 0.01% Brij-35, 10 mM MgCl2, and 1 mM EGTA). Recombinant GST-tagged JAK enzymes and a GFP-tagged STAT1 peptide substrate were obtained from Life Technologies.

[1] = tested on: IL-13 induced STAT6 phosphorylation in HT-29 human colorectal adenocarcinoma cells; assay: Cellular JAK potency assay: inhibition of IL-13 induced STAT6 phosphorylation; assay type: cell-based; details: IL-13 induced STAT6 phosphorylation, HT-29 cells; for IC50: Homo sapiens, read-out: HT-29 (pIC50) (converted)
Protocol: The potency of test compounds for inhibition of the JAK-dependent cytokine interleuken-13 (IL-13) was assessed by measuring IL-13 (IL-13, R&D Systems) induced STAT6 phosphorylation in HT-29 human colorectal adenocarcinoma cells (ATCC).
The anti-STAT6 antibody (Cell Signaling Technologies) was conjugated to AlphaScreen acceptor beads (Perkin Elmer), while the anti-pSTAT6 (pTyr641) antibody (Cell Signaling Technologies) was biotinylated using EZ-Link Sulfo-NHS-Biotin (Thermo Scientific).
HT-29 cells were grown at 37° C. in a 5% CO2 humidified incubator in McCoy's 5a Modified medium (ATCC) supplemented with 10% FBS (Hyclone), 100 U/mL penicillin, 100 μg/mL streptomycin (Life Technologies), and 2 mM GlutaMAX (Life Technologies). On day 1 of the assay, cells were seeded at a 7,500 cells/well density in white poly-D-lysine-coated 384-well plates (Corning) with 25 μL medium, and were allowed to adhere overnight in the incubator. On day 2 of the assay, the medium was removed and replaced with 12 μL of assay buffer (Hank's Balanced Salt Solution/HBSS, 25 mM HEPES, and 1 mg/ml bovine serum albumin/BSA) containing dose-responses of test compounds. Compounds were serially diluted in DMSO and then diluted another 1000-fold in media to bring the final DMSO concentration to 0.1%. Cells were incubated with test compounds at 37° C. for 1 h, and followed by the addition of 12 μL of pre-warmed IL-13 (12 ng/ml in assay buffer) for stimulation. After incubating at 37° C. for 30 min, the assay buffer (containing compound and IL-13) was removed, and 10 μL of cell lysis buffer (25 mM HEPES, 0.1% SDS, 1% NP-40, 5 mM MgCl2, 1.3 mM EDTA, 1 mM EGTA, and supplement with Complete Ultra mini protease inhibitors and PhosSTOP from Roche Diagnostics). The plates were shaken at ambient temperature for 30 min before the addition of detection reagents. A mixture of biotin-anti-pSTAT6 and anti-STAT6 conjugated acceptor beads was added first and incubated at ambient temperature for 2 h, followed by the addition of streptavidin conjugated donor beads (Perkin Elmer). After a minimum of 2 h incubation, the assay plates were read on the EnVision plate reader.
Results were expressed as the negative logarithm of the IC50 value, pIC50.

Chain of JAK1 (P23458 whole entry): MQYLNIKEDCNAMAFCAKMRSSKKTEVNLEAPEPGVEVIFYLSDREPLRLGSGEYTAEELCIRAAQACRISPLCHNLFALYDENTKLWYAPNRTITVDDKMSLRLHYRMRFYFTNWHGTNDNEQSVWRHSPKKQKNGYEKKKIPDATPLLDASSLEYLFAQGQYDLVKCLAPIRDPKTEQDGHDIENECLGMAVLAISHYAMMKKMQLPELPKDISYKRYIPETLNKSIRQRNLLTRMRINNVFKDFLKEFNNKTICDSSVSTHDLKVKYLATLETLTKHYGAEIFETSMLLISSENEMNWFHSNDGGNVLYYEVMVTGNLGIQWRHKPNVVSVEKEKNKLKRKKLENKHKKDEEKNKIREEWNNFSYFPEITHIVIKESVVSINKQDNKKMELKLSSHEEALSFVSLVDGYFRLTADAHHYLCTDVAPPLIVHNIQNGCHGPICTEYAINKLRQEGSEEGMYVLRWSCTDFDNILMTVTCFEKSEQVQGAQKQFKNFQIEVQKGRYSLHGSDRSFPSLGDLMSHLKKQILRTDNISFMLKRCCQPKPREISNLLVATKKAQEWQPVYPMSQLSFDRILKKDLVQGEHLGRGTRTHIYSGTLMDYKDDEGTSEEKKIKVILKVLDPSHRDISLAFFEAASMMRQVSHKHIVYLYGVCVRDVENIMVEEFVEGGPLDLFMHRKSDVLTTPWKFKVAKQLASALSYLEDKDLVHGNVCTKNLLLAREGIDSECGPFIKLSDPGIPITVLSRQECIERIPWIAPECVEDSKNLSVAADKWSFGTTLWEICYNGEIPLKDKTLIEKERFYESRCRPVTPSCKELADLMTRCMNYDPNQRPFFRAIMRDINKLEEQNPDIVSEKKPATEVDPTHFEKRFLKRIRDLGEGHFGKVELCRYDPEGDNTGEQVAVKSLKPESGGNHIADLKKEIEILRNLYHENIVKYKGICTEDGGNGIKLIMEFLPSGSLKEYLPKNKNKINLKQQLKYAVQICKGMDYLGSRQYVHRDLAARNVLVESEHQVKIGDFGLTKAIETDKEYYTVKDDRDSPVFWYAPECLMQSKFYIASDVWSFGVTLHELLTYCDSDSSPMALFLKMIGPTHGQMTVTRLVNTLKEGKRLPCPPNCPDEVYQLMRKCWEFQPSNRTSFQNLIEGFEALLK

Row | SMILES | JAK 1 (pKi) (JAK1) | HT-29 (pIC50) [1] | Ki (JAK1) [µM] | IC50 [1] [µM]
1 | COc1cc(Nc2cc(CO)[nH]n2)nc(N(C)[C@@H]2C[C@H]3CCC[C@@H](C2)N3S(=O)(=O)c2cncc(F)c2)n1 [Example 1-19, (3-((2-(((1R,3s,5S)-9-((5-fluoropyridin-3-yl)sulfonyl)-9-azabicyclo[3.3.1]nonan-3-yl)(methyl)amino)-6-methoxypyrimidin-4-yl)amino)-1H-pyrazol-5-yl)methanol] | B (B represents a pKi value between 9 and 10 (Ki between 1 nM and 0.1 nM)) | A (A represents a pIC50 value≥7.5 (IC50≤32 nM)) |  | 
2 | COc1cc(Nc2cc(CO)[nH]n2)nc(N[C@@H]2C[C@H]3CCC[C@@H](C2)N3C(=O)C(F)F)n1 [Example 3-1, 2,2-difluoro-1-((1R,3s,5S)-3-((4-((5-(hydroxymethyl)-1H-pyrazol-3-yl)amino)-6-methoxypyrimidin-2-yl)amino)-9-azabicyclo[3.3.1]nonan-9-yl)ethan-1-one] | B (B represents a pKi value between 9 and 10 (Ki between 1 nM and 0.1 nM)) |  |  | 
3 | COc1cc(Nc2cc(CO)[nH]n2)nc(N(C)[C@@H]2C[C@H]3CCC[C@@H](C2)N3Cc2ccnc(C#N)c2)n1 [Example 2-8, 4-(((1R,3s,5S)-3-((4-((5-(hydroxymethyl)-1H-pyrazol-3-yl)amino)-6-methoxypyrimidin-2-yl)(methyl)amino)-9-azabicyclo[3.3.1]nonan-9-yl)methyl)picolinonitrile] | B (B represents a pKi value between 9 and 10 (Ki between 1 nM and 0.1 nM)) | B (B represents a pIC50 value between 6.7 and 7.5 (IC50 between 200 nM and 32 nM)) |  | 
4 | COc1cc(Nc2cc(CO)[nH]n2)nc(N[C@@H]2C[C@H]3CCC[C@@H](C2)N3Cc2ccncc2)n1 [Example 2-2] | B (B represents a pKi value between 9 and 10 (Ki between 1 nM and 0.1 nM)) | B (B represents a pIC50 value between 6.7 and 7.5 (IC50 between 200 nM and 32 nM)) |  | 
5 | COc1cc(Nc2cc(CO)[nH]n2)nc(N[C@@H]2C[C@H]3CCC[C@@H](C2)N3S(=O)(=O)CC2CC2)n1 [Example 1-10, (3-((2-(((1R,3s,5S)-9-((cyclopropylmethyl)sulfonyl)-9-azabicyclo[3.3.1]nonan-3-yl)amino)-6-methoxypyrimidin-4-yl)amino)-1H-pyrazol-5-yl)methanol] | B (B represents a pKi value between 9 and 10 (Ki between 1 nM and 0.1 nM)) |  |  | 
6 | COc1cc(Nc2cc(CO)[nH]n2)nc(N[C@@H]2C[C@H]3CCC[C@@H](C2)N3S(=O)(=O)c2cccnc2)n1 [Example 1-11, (3-((6-methoxy-2-(((1R,3s,5S)-9-(pyridin-3-ylsulfonyl)-9-azabicyclo[3.3.1]nonan-3-yl)amino)pyrimidin-4-yl)amino)-1H-pyrazol-5-yl)methanol] | B (B represents a pKi value between 9 and 10 (Ki between 1 nM and 0.1 nM)) | B (B represents a pIC50 value between 6.7 and 7.5 (IC50 between 200 nM and 32 nM)) |  | 
7 | COc1cc(Nc2cc(CO)[nH]n2)nc(N[C@@H]2C[C@H]3CC[C@@H](C2)N3S(=O)(=O)N2CCC2)n1 [Example 1-1] |  |  | 0.001 to 0.01 | 0.0316 to 0.2
8 | COc1cc(Nc2cc(CO)[nH]n2)nc(N[C@@H]2C[C@H]3CC[C@@H](C2)N3Cc2ccncc2)n1 [Example 2-1] | C (C represents a pKi value between 8 and 9 (Ki between 10 nM and 1 nM)) | C (C represents a pIC50 value between 6 and 6.7 (IC50 between 1 μM and 200 nM)) |  | 
9 | COc1cc(Nc2cc(CO)[nH]n2)nc(N[C@@H]2C[C@H]3CCC[C@@H](C2)N3S(=O)(=O)c2cncc(F)c2)n1 [Example 1-7, (3-((2-(((1R,3s,5S)-9-((5-fluoropyridin-3-yl)sulfonyl)-9-azabicyclo[3.3.1]nonan-3-yl)amino)-6-methoxypyrimidin-4-yl)amino)-1H-pyrazol-5-yl)methanol] | B (B represents a pKi value between 9 and 10 (Ki between 1 nM and 0.1 nM)) |  |  | 
10 | COc1cc(Nc2cc(CO)[nH]n2)nc(N(C)[C@@H]2C[C@H]3CCC[C@@H](C2)N3S(=O)(=O)CC2CC2)n1 [Example 1-18, (3-((2-(((1R,3s,5S)-9-((cyclopropylmethyl)sulfonyl)-9-azabicyclo[3.3.1]nonan-3-yl)(methyl)amino)-6-methoxypyrimidin-4-yl)amino)-1H-pyrazol-5-yl)methanol] | B (B represents a pKi value between 9 and 10 (Ki between 1 nM and 0.1 nM)) |  |  | 
11 | COc1cc(Nc2cc(CO)[nH]n2)nc(N(C)[C@@H]2C[C@H]3CCC[C@@H](C2)N3Cc2ccncc2)n1 [Example 2-7, (3-((6-methoxy-2-(methyl((1R,3s,5S)-9-(pyridin-4-ylmethyl)-9-azabicyclo[3.3.1]nonan-3-yl)amino)pyrimidin-4-yl)amino)-1H-pyrazol-5-yl)methanol] | B (B represents a pKi value between 9 and 10 (Ki between 1 nM and 0.1 nM)) | B (B represents a pIC50 value between 6.7 and 7.5 (IC50 between 200 nM and 32 nM)) |  | 
12 | CCS(=O)(=O)N1[C@@H]2CCC[C@H]1C[C@H](Nc1nc(Nc3cc(CO)[nH]n3)cc(OC)n1)C2 [Example 1-9, (3-((2-(((1R,3s,5S)-9-(ethylsulfonyl)-9-azabicyclo[3.3.1]nonan-3-yl)amino)-6-methoxypyrimidin-4-yl)amino)-1H-pyrazol-5-yl)methanol] | B (B represents a pKi value between 9 and 10 (Ki between 1 nM and 0.1 nM)) | B (B represents a pIC50 value between 6.7 and 7.5 (IC50 between 200 nM and 32 nM)) |  | 
13 | COc1cc(Nc2cc(CO)[nH]n2)nc(N[C@@H]2C[C@H]3CC[C@@H](C2)N3S(=O)(=O)N2CC(C#N)C2)n1 [Example 1-2] |  |  | 0.0001 to 0.001 | 0.2 to 1
14 | COc1cc(Nc2cc(CO)[nH]n2)nc(N[C@@H]2C[C@H]3CCC[C@@H](C2)N3S(=O)(=O)c2ccccc2)n1 [Example 1-8, (3-((6-methoxy-2-(((1R,3s,5S)-9-(phenylsulfonyl)-9-azabicyclo[3.3.1]nonan-3-yl)amino)pyrimidin-4-yl)amino)-1H-pyrazol-5-yl)methanol] | A (A represents a pKi value≥10 (Ki≤0.1 nM)) | A (A represents a pIC50 value≥7.5 (IC50≤32 nM)) |  | 
15 | COc1cc(Nc2cc(CO)[nH]n2)nc(N(C)C2C[C@H]3CCC[C@@H](C2)N3C(=O)C(F)F)n1 (stereo partly drawn) [Example 9, 2,2-difluoro-1-((1R,3s,5S)-3-((4-((5-(hydroxymethyl)-1H-pyrazol-3-yl)amino)-6-methoxypyrimidin-2-yl)(methyl)amino)-9-azabicyclo[3.3.1]nonan-9-yl)ethan-1-one] |  |  |  | 0.0316 to 0.2
16 | COc1cc(Nc2cc(CO)[nH]n2)nc(N[C@@H]2C[C@H]3CCC[C@@H](C2)N3S(=O)(=O)N2CCC2)n1 [Example 1-5, (3-((2-(((1R,3s,5S)-9-(azetidin-1-ylsulfonyl)-9-azabicyclo[3.3.1]nonan-3-yl)amino)-6-methoxypyrimidin-4-yl)amino)-1H-pyrazol-5-yl)methanol] | B (B represents a pKi value between 9 and 10 (Ki between 1 nM and 0.1 nM)) | B (B represents a pIC50 value between 6.7 and 7.5 (IC50 between 200 nM and 32 nM)) |  | 
17 | COc1cc(Nc2cc(CO)[nH]n2)nc(N[C@@H]2C[C@H]3CCC[C@@H](C2)N3Cc2cccnc2)n1 [Example 2-4, (3-((6-methoxy-2-(((1R,3s,5S)-9-(pyridin-3-ylmethyl)-9-azabicyclo[3.3.1]nonan-3-yl)amino)pyrimidin-4-yl)amino)-1H-pyrazol-5-yl)methanol] | B (B represents a pKi value between 9 and 10 (Ki between 1 nM and 0.1 nM)) | B (B represents a pIC50 value between 6.7 and 7.5 (IC50 between 200 nM and 32 nM)) |  | 
18 | COc1cc(Nc2cc(CO)[nH]n2)nc(N[C@@H]2C[C@H]3CC[C@@H](C2)N3S(=O)(=O)c2ccccc2)n1 [Example 1-4] |  |  | 0.01 to 0.0316 | 
19 | COc1cc(Nc2cc(CO)[nH]n2)nc(N[C@@H]2C[C@H]3CCC[C@@H](C2)N3Cc2ccc(C#N)nc2)n1 [Example 6, 5-(((1R,3s,5S)-3-((4-((5-(hydroxymethyl)-1H-pyrazol-3-yl)amino)-6-methoxypyrimidin-2-yl)amino)-9-azabicyclo[3.3.1]nonan-9-yl)methyl)picolinonitrile] |  |  | 0.0001 to 0.001 | 
